Tests used:
[1] = Pharmacokinetic study in cynomolgus monkeys; format: in vivo; conditions: cynomolgus monkey, plasma; for Vd: read-out: Vdss
Method: (§1) The pharmacokinetics of test compounds were evaluated in male C57BL/6 mice, Sprague Dawley rats, Beagle dogs, and cynomolgus monkeys when administered via oral gavage and IV injection. The animals were fasted overnight before administration. Plasma samples were collected predose and at 0.5, 1, 3, 6, 9, 12, and 24 hours postdose. The samples were analyzed by LC/MS/MS and the concentration of test compound at each timepoint was determined by linear regression. Pharmacokinetic parameters were calculated from the plasma concentrations using Pheonix WinNonlin.

[2] = tested on: IL-2-induced pSTAT5 in human PBMC; assay: IL-2-induced pSTAT5 in human PBMC; format: cell-based; conditions: IL-2 20 ng/ml
Method: (§2) Fresh Human PBMCs were resuspended in RPMI 1640 medium with 10% FBS. Cells were seeded in a round bottom 96-well plate at the concentration of 200,000 cells/well. A 10-point dilution series of test compound (top dose 10 uM, 1:5 dilution) was added to the well using the liquid dispenser (Tecan D300e) and incubated for 1 hour at 37 C. Then human IL-12 recombinant protein (R&D Systems) was added to the well at the final concentration of 10 ng/ml and incubated for 15 minutes at 37 C. Cell lysates were prepared and analyzed by Phospho STAT4 (Tyr693) Kit (Meso Scale Discovery) following manufacturer's protocol.
(§3) For calculation of the inhibition rate, the relative pSTAT4 signal of each well=pSTAT4 signal of each well−the average pSTAT4 signal of baseline. The inhibition %=(the average pSTAT4 signal of IL-12 treatment wells−the relative of pSTAT4 signal in each compound containing well)/the average pSTAT4 signal of IL-12 treatment wells*100%
(§4) The curve was plotted as the inhibition % (y-axis) vs. compounds concentration (x-axis) and was fitted with log(inhibitor) vs. normalized response—Variable slope by GraphPad Prism7.0. Control is BMS-986165:
(§5) Similar to the method for IL-12 induced pSTAT4 in human PBMC described above, these assays were performed to check if test compounds have cross-activity to JAK1. JAK2 and JAK3 pathways in human PBMC. The procedure is as described with change of stimuli to 10 ng/ml of GM-CSF or 20 ng/ml of IL-2.

[3] = Pharmacokinetic study in Beagle dogs; format: in vivo; conditions: dog, plasma; for Vd: read-out: Vdss
Method: as §1

[4] = tested on: INFα induced pSTAT5 in human PBMC; assay: INFα induced pSTAT5 in human PBMC; format: cell-based; conditions: human PBMC, INFα 5000 units/ml; read-out: p-STAT5 IC50
Method: Cells were seeded in a round bottom 96-well plate at the concentration of 200,000 cells/well. A 10-point dilution series of test compound (top dose 10 uM, 1:5 dilution) was added to the well using the liquid dispenser (Tecan D300e) and incubated for 1 hour at 37 C. Then human INFα recombinant protein (R&D Systems) was added to the well at the final concentration of 5000 units/ml and incubated for 15 minutes at 37 C. Cell lysates were prepared and analyzed by Phospho STAT3 (Tyr705) cellular kit (Cisbio) or Phospho STAT5 (Tyr693) Kit (Meso Scale Discovery) following manufacturer's protocol.
For calculation of the inhibition rate, the relative pSTAT signal of each well=pSTAT signal of each well−the average pSTAT signal of baseline. The inhibition %=(the average pSTAT signal of INFα treatment wells−the relative of pSTAT signal in each compound containing well)/the average pSTAT signal of INFα treatment wells*100%

[5] = tested on: GM-CSF-induced pSTAT5 in human PBMC; assay: GM-CSF-induced pSTAT5 in human PBMC; format: cell-based; conditions: GM-CSF 10 ng/ml
Method: as §2, §3, §4, §5

[6] = Pharmacokinetic study in Sprague Dawley rats; format: in vivo; conditions: rat, plasma; for Vd: read-out: Vdss
Method: as §1

[7] = Pharmacokinetic study in C57BL/6 mice; format: in vivo; conditions: male, mouse, plasma
Method: as §1

TYK2 (JH2 domain) = TYK2 (JH2 domain) (Homo sapiens (Human), UniProt P29597); assay: TYK2 JH2 domain binding assay (DiscoverX KINOMEscan); conditions: 11-point 3-fold dilution, duplicate
Sequence of TYK2 (JH2 domain) (P29597 589-875): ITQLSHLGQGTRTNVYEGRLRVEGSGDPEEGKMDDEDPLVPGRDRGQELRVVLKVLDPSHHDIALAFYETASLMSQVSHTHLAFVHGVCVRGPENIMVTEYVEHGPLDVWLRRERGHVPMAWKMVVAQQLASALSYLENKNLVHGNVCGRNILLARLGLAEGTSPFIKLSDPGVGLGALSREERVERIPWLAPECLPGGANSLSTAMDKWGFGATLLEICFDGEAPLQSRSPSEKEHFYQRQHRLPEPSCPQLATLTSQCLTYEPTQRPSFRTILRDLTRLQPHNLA

JAK2 (JH1 domain) = JAK2 (JH1 domain) (Homo sapiens (Human), UniProt O60674); assay: JAK2 JH1 domain binding assay (KINOMEscan)
Sequence of JAK2 (JH1 domain) (O60674 849-1124): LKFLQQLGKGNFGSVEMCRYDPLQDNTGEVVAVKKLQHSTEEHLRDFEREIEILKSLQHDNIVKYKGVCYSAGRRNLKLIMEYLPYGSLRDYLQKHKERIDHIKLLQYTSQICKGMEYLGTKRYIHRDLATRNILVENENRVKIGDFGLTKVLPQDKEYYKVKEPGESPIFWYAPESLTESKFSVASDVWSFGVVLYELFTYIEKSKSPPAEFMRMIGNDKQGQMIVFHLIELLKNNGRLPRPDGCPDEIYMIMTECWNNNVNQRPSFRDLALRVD
Method: (§6) The assay is performed by combining three components: DNA-tagged kinase; immobilized ligand; and a test compound. The ability of the test compound to compete with the immobilized ligand is measured via quantitative PCR of the DNA tag.
(§7) The liganded beads were blocked with excess biotin and washed with blocking buffer (SeaBlock (Pierce), 1% BSA, 0.05% Tween 20, 1 mM DTT) to remove unbound ligand and to reduce non-specific binding. […] Test compounds were prepared as 111× stocks in 100% DMSO. All test compounds were shipped to DiscoverX in DMSO with concentration of 10 mM. Kds were determined using an 11-point 3-fold compound dilution series with three DMSO control points. Each compound was tested in duplicate. […] The compounds were then diluted directly into the assays such that the final concentration of DMSO was 0.9%. All reactions performed in polypropylene 384-well plate. Each was a final volume of 0.02 ml. […] The kinase concentration in the eluates was measured by qPCR.
(§8) The amount of kinase measured by qPCR (Signal; y-axis) is plotted against the corresponding compound concentration in nM in log 10 scale (x-axis). Binding constants (Kds) were calculated with a standard dose-response curve using the Hill equation:
(§9) Similar to the method for TYK2 JH2 binding described above, JAK1 JH2 and JAK2 JH1 domain binding assay was performed using DiscoverX's KINOMEscan™, but with change of kinase domain.

JAK1 (JH2 domain) = JAK1 (JH2 domain) (Homo sapiens (Human), UniProt P23458); assay: JAK1 JH2 domain binding assay (KINOMEscan); conditions: KINOMEscan; read-out: JAK1 (JH2 domain) binding Kd
Sequence of JAK1 (JH2 domain) (P23458 583-855): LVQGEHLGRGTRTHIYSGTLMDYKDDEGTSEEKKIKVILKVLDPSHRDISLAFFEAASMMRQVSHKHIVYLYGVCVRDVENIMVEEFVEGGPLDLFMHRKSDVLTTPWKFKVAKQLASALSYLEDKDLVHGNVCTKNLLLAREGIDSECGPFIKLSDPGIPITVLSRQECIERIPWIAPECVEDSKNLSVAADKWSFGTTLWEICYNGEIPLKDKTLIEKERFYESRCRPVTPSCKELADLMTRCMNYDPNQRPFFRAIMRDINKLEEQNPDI
Method: as §6, §7, §8, §9

[8] = Oral (2 mg/kg), NA: no detectable
[9] = Oral (2 mg/kg), NA: no detectable, read-out: C0 or Cmax (Cmax)
[10] = iv, I.V. (1 mg/kg), read-out: C0 or Cmax (C0)
[11] = Oral (2 mg/kg), read-out: C0 or Cmax (Cmax)
[12] = Oral (5 mg/kg), read-out: C0 or Cmax (Cmax)

[2H]C([2H])([2H])CC(=O)c1cnc(NC(=O)C2CC2)cc1Nc1cccc(-c2ncn(C([2H])([2H])[2H])n2)c1OC [Example 195]
AUC [1, 8]: 5420 ± 3250 ng·h/mL
Tmax [1, 8]: 4 h
bioavailability [1, 8]: 16.6 ± 9.95%
half-life [1, 8]: 348 ± 43.8 min
Cmax [1, 9]: 663 ± 497 ng/mL
AUC ([1]; iv, I.V. (1 mg/kg)): 16300 ± 664 ng·h/mL
clearance ([1]; iv, I.V. (1 mg/kg)): 0.898 ± 0.04 mL/min/kg
half-life ([1]; iv, I.V. (1 mg/kg)): 459 ± 33.6 min
Cmax [1, 10]: 1290 ± 106 ng/mL
Vd ([1]; iv, I.V. (1 mg/kg)): 0.624 ± 0.03 L/kg
IC50 [2]: 1000 to 10000 nM
AUC ([3]; Oral (2 mg/kg)): 1520 ± 1330 ng·h/mL
Tmax ([3]; Oral (2 mg/kg)): 1.33 ± 0.58 h
bioavailability ([3]; Oral (2 mg/kg)): 26.2 ± 23%
half-life ([3]; Oral (2 mg/kg)): 344 ± 121 min
Cmax [3, 11]: 285 ± 285 ng/mL
AUC ([3]; iv, I.V. (1 mg/kg)): 2900 ± 453 ng·h/mL
clearance ([3]; iv, I.V. (1 mg/kg)): 5.31 ± 0.93 mL/min/kg
half-life ([3]; iv, I.V. (1 mg/kg)): 401 ± 23.4 min
Cmax [3, 10]: 185 ± 8.4 ng/mL
Vd ([3]; iv, I.V. (1 mg/kg)): 3.04 ± 0.27 L/kg
IC50 [4]: < 100 nM
IC50 [5]: 1 to 10 µM
AUC ([6]; Oral (5 mg/kg)): 7440 ± 1400 ng·h/mL
Tmax ([6]; Oral (5 mg/kg)): 1.67 ± 0.58 h
bioavailability ([6]; Oral (5 mg/kg)): 46.7 ± 8.8%
half-life ([6]; Oral (5 mg/kg)): 142 ± 19.2 min
Cmax [6, 12]: 1260 ± 226 ng/mL
AUC ([6]; iv, I.V. (1 mg/kg)): 3190 ± 603 ng·h/mL
clearance ([6]; iv, I.V. (1 mg/kg)): 4.96 ± 0.91 mL/min/kg
half-life ([6]; iv, I.V. (1 mg/kg)): 128 ± 7.2 min
Cmax [6, 10]: 2150 ± 123 ng/mL
Vd ([6]; iv, I.V. (1 mg/kg)): 0.824 ± 0.11 L/kg
Tmax ([7]; Oral (10 mg/kg)): 30 min
bioavailability ([7]; Oral (10 mg/kg)): 41.7%
half-life ([7]; Oral (10 mg/kg)): 127 min
Cmax ([7]; Oral (10 mg/kg), read-out: C0 or Cmax (Cmax)): 4300 ng/mL
clearance ([7]; iv, I.V. (2 mg/kg)): 4.16 mL/min/kg
half-life ([7]; iv, I.V. (2 mg/kg)): 148 min
Cmax ([7]; iv, I.V. (2 mg/kg), read-out: C0 or Cmax (C0)): 2950 ng/mL
Vd ([7]; iv, I.V. (2 mg/kg), read-out: Vdss): 0.688 L/kg

[2H]C([2H])([2H])CC(=O)c1cnc(Nc2cccc(C#N)n2)cc1Nc1cccc(-c2ncn(C([2H])([2H])[2H])n2)c1OC [Example 198]
AUC [1, 8]: 1230 ± 435 ng·h/mL
Tmax [1, 8]: 4 h
bioavailability [1, 8]: 59.4 ± 21.1%
half-life [1, 8]: 76.8 ± 10.8 min
Cmax [1, 9]: 246 ± 124 ng/mL
AUC ([1]; iv, I.V. (1 mg/kg)): 1030 ± 159 ng·h/mL
clearance ([1]; iv, I.V. (1 mg/kg)): 16.1 ± 2.4 mL/min/kg
half-life ([1]; iv, I.V. (1 mg/kg)): 87 ± 13.2 min
Cmax [1, 10]: 667 ± 82 ng/mL
Vd ([1]; iv, I.V. (1 mg/kg)): 1.94 ± 0.03 L/kg
Kd (TYK2 (JH2 domain)): ≤ 1 nM
IC50 [2]: 100 to 1000 nM
AUC ([3]; Oral (2 mg/kg)): 253 ± 48 ng·h/mL
Tmax ([3]; Oral (2 mg/kg)): 1.67 ± 0.58 h
bioavailability ([3]; Oral (2 mg/kg)): 54 ± 10%
half-life ([3]; Oral (2 mg/kg)): 85.2 ± 14.4 min
Cmax [3, 11]: 68.8 ± 18 ng/mL
AUC ([3]; iv, I.V. (1 mg/kg)): 234 ± 94 ng·h/mL
clearance ([3]; iv, I.V. (1 mg/kg)): 68.6 ± 28 mL/min/kg
half-life ([3]; iv, I.V. (1 mg/kg)): 257 ± 75 min
Cmax [3, 10]: 182 ± 47.6 ng/mL
Vd ([3]; iv, I.V. (1 mg/kg)): 23.1 ± 4.59 L/kg
IC50 [4]: < 100 nM
Kd (JAK2 (JH1 domain)): > 10 µM
Kd (JAK1 (JH2 domain)): < 100 nM
IC50 [5]: 1 to 10 µM
AUC ([6]; Oral (5 mg/kg)): 1190 ± 53 ng·h/mL
Tmax ([6]; Oral (5 mg/kg)): 1 ± 0.87 h
bioavailability ([6]; Oral (5 mg/kg)): 16.9 ± 0.76%
half-life ([6]; Oral (5 mg/kg)): 171 ± 168 min
Cmax [6, 12]: 261 ± 35 ng/mL
AUC ([6]; iv, I.V. (1 mg/kg)): 1400 ± 29 ng·h/mL
clearance ([6]; iv, I.V. (1 mg/kg)): 11.8 ± 0.22 mL/min/kg
half-life ([6]; iv, I.V. (1 mg/kg)): 73.2 ± 7.2 min
Cmax [6, 10]: 1200 ± 70 ng/mL
Vd ([6]; iv, I.V. (1 mg/kg)): 1.1 ± 0.065 L/kg

[2H]C([2H])([2H])CC(=O)c1cnc(Nc2cccc(C#N)n2)cc1Nc1nccc(-c2ncn(C([2H])([2H])[2H])n2)c1OC [Example 199]
Kd (TYK2 (JH2 domain)): ≤ 1 nM
IC50 [2]: 100 to 1000 nM
AUC ([3]; Oral (2 mg/kg)): 67.6 ± 25 ng·h/mL
Tmax ([3]; Oral (2 mg/kg)): 1.33 ± 0.6 h
bioavailability ([3]; Oral (2 mg/kg)): 10.7 ± 3.9%
half-life ([3]; Oral (2 mg/kg)): 81.6 ± 3 min
Cmax [3, 11]: 23.4 ± 4 ng/mL
AUC ([3]; iv, I.V. (1 mg/kg)): 315 ± 188 ng·h/mL
clearance ([3]; iv, I.V. (1 mg/kg)): 63.2 ± 30 mL/min/kg
half-life ([3]; iv, I.V. (1 mg/kg)): 107 ± 35.4 min
Cmax [3, 10]: 334 ± 96 ng/mL
Vd ([3]; iv, I.V. (1 mg/kg)): 5.62 ± 1.13 L/kg
IC50 [4]: < 100 nM
Kd (JAK2 (JH1 domain)): > 10 µM
Kd (JAK1 (JH2 domain)): < 100 nM
IC50 [5]: 1 to 10 µM
AUC ([6]; Oral (5 mg/kg)): 650 ± 34 ng·h/mL
Tmax ([6]; Oral (5 mg/kg)): 1.33 ± 0.58 h
bioavailability ([6]; Oral (5 mg/kg)): 18.4 ± 1%
half-life ([6]; Oral (5 mg/kg)): 99.6 ± 22.2 min
Cmax [6, 12]: 140 ± 32 ng/mL
AUC ([6]; iv, I.V. (1 mg/kg)): 705 ± 140 ng·h/mL
clearance ([6]; iv, I.V. (1 mg/kg)): 23.3 ± 4.9 mL/min/kg
half-life ([6]; iv, I.V. (1 mg/kg)): 104 ± 12 min
Cmax [6, 10]: 414 ± 56 ng/mL
Vd ([6]; iv, I.V. (1 mg/kg)): 3.27 ± 0.87 L/kg

[2H]C([2H])([2H])CC(=O)c1cnc(Nc2ccc(C(O)(C([2H])([2H])[2H])C([2H])([2H])[2H])c(F)n2)cc1Nc1ncccc1S(C)(=O)=O [Example 203]
AUC ([1]; iv, I.V. (1 mg/kg)): 595 ± 48 ng·h/mL
clearance ([1]; iv, I.V. (1 mg/kg)): 27.6 ± 1.9 mL/min/kg
half-life ([1]; iv, I.V. (1 mg/kg)): 57.1 ± 13.2 min
Cmax [1, 10]: 787 ± 61 ng/mL
Vd ([1]; iv, I.V. (1 mg/kg)): 0.931 ± 0.01 L/kg
IC50 [2]: 100 to 1000 nM
IC50 [4]: < 100 nM
IC50 [5]: 1 to 10 µM
